# Test results: PMC4857130, “Mechanistic and quantitative insight into cell surface targeted molecular imaging agent design” (Scientific Reports, 2016)
# Like-named read-outs stand apart in the source and are kept apart here. Marks after values point to notes of the source that are not given here.
# Tests used:
# plasma protein [1] = conditions: cited from earlier work
# LNCaP or PC3 xenografts = system: LNCaP or PC3 xenografts; set-up: method as in PMID 19706750, PMID 23733925; conditions: cited from earlier work; for TBR (tumor to muscle ratio) / blood concentration: 4 h post-injection; for TBR (tumor to muscle ratio): calculated from published tumor and skeletal muscle uptake
# PSMA = biological target: PSMA; set-up: method as in PMID 19706750, PMID 23733925; conditions: strongest affinity of all PSMA binders tested; cited from earlier work
# plasma protein [2] = assay: Plasma protein binding by Rapid Equilibrium Dialysis (RED); assay type: in vitro ADME; conditions: 12 kDa plate
# Text: Plasma protein interactions were quantified for commonly used, commercially available far-red and near-infrared fluorescent dyes. For IRDye 800CW, ZW800, BODIPY 650, Alexa Fluor 680, and integrin conjugates, a Rapid Equilibrium Dialysis (RED) plate (Thermo Scientific) was used following the manufacturer’s protocol.
# Rapid Equilibrium Dialysis (RED) was used to quantify plasma protein binding
# for various fluorescent dyes (carboxylate form) and fluorescent conjugates.
# are available with membrane molecular weight cutoffs of either 8 kDa or 12 kDa.
# that many of the fluorescent conjugates are >1 kDa, the 12 kDa plate were used to reduce
# The 12 kDa RED plate gave
compound,measurement,setting,value
O=C([O-])CN(CCN(CC(=O)[O-])CC(=O)[O-])CCN(CC(=O)[O-])CC(=O)[O-].[99Tc+4] [99mTc-DTPA],plasma protein binding,plasma protein [1],< 5%
CC1(C)C(/C=C/C=C/C=C/C=C2\N(CCCCS(=O)(=O)[O-])c3ccc4ccccc4c3C2(C)C)=[N+](CCCCS(=O)(=O)[O-])c2ccc3ccccc3c21.[Na+] [ICG dye],% Plasma Protein Bound,plasma protein [1]; estimates based on a subsaturating concentration of ICG,99.5–99.975 ^* %
O=C(O)CC[C@H](NC(=O)N[C@@H](CCCCNCc1ccc(I)cc1)C(=O)O)C(=O)O [MIP1072],TBR (tumor to muscle ratio),LNCaP or PC3 xenografts,171
same,blood concentration,LNCaP or PC3 xenografts,0.06 %ID/g
O=C(O)CC[C@H](NC(=O)N[C@@H](CCCCNC(=O)Nc1ccc(I)cc1)C(=O)O)C(=O)O [MIP1095],skeletal muscle uptake,LNCaP or PC3 xenografts; highest of the PSMA set,0.26 %ID/g
same,Kd,PSMA,0.24 nM
O=C(O)CC[C@H](NC(=O)N[C@@H](CCC(=O)N[C@@H](CCCCN(Cc1nccn1CC(=O)N(CC(=O)O)CC(=O)O)Cc1nccn1CC(=O)N(CC(=O)O)CC(=O)O)C(=O)O)C(=O)O)C(=O)O [MIP1404],TBR (tumor to muscle ratio),LNCaP or PC3 xenografts,157
same,blood concentration,LNCaP or PC3 xenografts,0.02 %ID/g
O=C(O)CC[C@H](NC(=O)N[C@@H](CCC(=O)NC(CCCCN(Cc1nccn1CC(=O)O)Cc1nccn1CC(=O)O)C(=O)O)C(=O)O)C(=O)O (stereo partly shown) [MIP1427],TBR (tumor to muscle ratio),LNCaP or PC3 xenografts,31
same,blood concentration,LNCaP or PC3 xenografts,0.28 %ID/g
CC1(C)C(=CC=CC=CC=CC2=[N+](CCCCS(=O)(=O)[O-])c3ccc(C(=O)NC[C@H](O)[C@@H](O)[C@H](O)C(O)CO)cc3C2(C)C)N(CCCCS(=O)(=O)[O-])c2ccc(C(=O)NCC(O)C(O)C(O)[C@H](O)CO)cc21.[Na+] (stereo partly shown) [SIDAG dye],% Plasma Protein Bound,"plasma protein [1]; reported bound fraction in the plasma, discussed in SI",57 ^* %
IRDye 800CW carboxylate,% Plasma Protein Bound,plasma protein [2],89 ± 3%
Inulin,plasma protein binding,"plasma protein [1]; classic example, no reference given",no measurable plasma protein binding
